Assay results from patent publication US20190141999A1, “Methods For Repelling Blood-Sucking And Biting Insects, Ticks And Mites” (The United States of America, as represented by the …, priority 2017, published 2019).
Where two headings read alike, the source gives them in different places. Marks after values point to notes of the source that are not given here.

Columns and labels:
stable flies [1] = settings: for knock-down times: 20 mg and 10 mg doses; for knock-down: lowest dose, 2 mg
stable flies [2] = experiment: stable fly laboratory repellent bioassay (blood-feeding); type: in vivo, Stomoxys calcitran
Protocol: Comparisons of coconut oil, coconut FFA, and lauric acid against stable fly blood-feeding: Using our modified stable fly laboratory repellent bioassay, we tested coconut oil, coconut FFA and its major compositional compound, lauric acid, for their repellency against stable flies.
In FIG. 11, repellent activity tests were conducted under the laboratory conditions (22° C., 50% RH), 48-hr starved stable flies were used, and a total of at least 5 replicates were accumulated.

stable flies [3] = experiment: as above; type: in vivo, Stomoxys calcitran; settings: for repellency of C8 to C18 acids: FIG. 3
bed bugs [4] = experiment: bed bug petri-dish repellency assay; type: in vivo, Cimex letularius
From the text: (§1) Bed bugs chose to rest on control tents (hexane-treated) when given a choice of coconut FFA-treated tent (FIG. 9C). This effect lasted on tents treated 14 d earlier.

Aedes aegypti [5] = experiment: arm-in-cage assay, biting protection; type: in vivo; settings: 1st hour, N = 3
bed bugs [6] = experiment: bed bug choice among treated tents (harborages); type: in vivo, Cimex letularius; settings: control (hexane) vs treated tent
From the text: as §1

Aedes aegypti [7] = experiment: minimum effective dosage for biting protection; type: in vivo; settings: N = 3-5
horn flies [8] = experiment: horn fly blood-feeding repellency; type: in vivo, Haematobia irritans
Protocol: Comparisons of coconut FFA, methyl laurate, and lauric acid against horn fly blood-feeding: We also tested coconut FFA and its major compositional compound, lauric acid, for their repellency against horn flies. […] F=41.5 P<0.0001). Dose response curves of repellency against horn flies from coconut FFA and lauric acid: […] F=4.08-4.38 P<0.05). […] A 50% repellency was shown when the dose was reduced to 2 mg. No significant differences in the least repellency concentrations were found among the two repellent candidates, with average 7 mg of both coconut FFA and lauric acid was needed.

ticks = experiment: tick repellency (species not stated); type: in vivo; settings: at 1.25%
horn flies [9] = experiment: mortality of horn flies after exposure; type: in vivo
From the text: The present invention discloses a blood-sucking insects and biting insects (e.g., stable flies, horn flies, ticks and mites repellent compounds (e.g., lauric acid), identified from coconut oil that is listed as a GRAS (Generally Recognized as Safe, http://www.fda.gov/Food/IngredientsPackagingLabeling/GRAS/) substance. Coconut oil is an edible oil extracted from the kernel or meat of mature coconuts harvested from the coconut palm (https://en.wikipedia.org/wiki/Coconut_oil). It contains a high level of low molecular weight saturated fatty acids (Gervajio, G. C., Fatty acids and derivatives from coconut oil, IN: Bailey's Industrial Oil and Fat Products, Sixth Edition, Six Volume Set, Fereidoon Shahidi, Ed., 2005, John Wiley & Sons, Inc.). […] Both have over 2-weeks longevity deterring stable fly feeding (>90% repellency). […] This compound is listed as one of CFR 21 products that is permitted for direct addition to food for human consumption by FDA (Code of Federal Regulations, Title 21). […]

## CCCCCCCC(=O)OC [C8 Me, Methyl octanoate]
Stable flies [1]
  knock-down times: significantly shorter knock-down times
  knock-down: no knock-down
Stable flies [2]; 2 mg dose
  repellency against stable flies: strongest repellency
Stable flies [2]; 20 mg dosage
  repellency against stable flies: 100%

## CCCCCCCC(=O)O [C8 acid, Caprylic acid]
Stable flies [3]; dose not stated
  repellency of C8 to C18 acids: > 80%

## CCCCCCCCC(=O)O [C9]
Stable flies [3]; dose not stated
  repellency of C8 to C18 acids: strongest repellency

## CCCCCCCCCC(=O)OC [C10 Me, Methyl decanoate]
Stable flies [1]
  knock-down times: significantly shorter knock-down times
Stable flies [1]; in vivo
  mortality: ~100%
Stable flies [1]; stable flies
  knock-down time: less than 3 mins
  toxic effect: most active toxicant
Stable flies [1]; stable flies, listed as 10 Me ester
  time to mortality after exposure: 10 to 15 min
Stable flies [1]; stable flies, listed as C10 methyl ester
  time to mortality after exposure: < 10 min
Stable flies [2]; 20 mg dosage
  repellency against stable flies: 100%

## CCCCCCCCCCC(=O)O [C11]
Stable flies [3]; dose not stated
  repellency of C8 to C18 acids: strongest repellency

## CCCCCCCCCCCCC(=O)O [C13]
Stable flies [3]; dose not stated
  repellency of C8 to C18 acids: strongest repellency

## CCN(CC)C(=O)c1cccc(C)c1 [DEET, N,N-diethyl-m-toluamide, reference compound]
Bed bugs [4]; 7th day after application (FIG. 9B)
  repellency remaining: below 40%
Aedes aegypti [5]; 6.25%
  biting protection: 58-88* %
Aedes aegypti [5]; 12.50%
  biting protection: 77-97* %
Aedes aegypti [5]; 25% (0.42 mg/cm^2)
  biting protection: ≈93* %
Bed bugs [6]
  choice of control tents over treated tents: no longer significant at 7 d and 14 d
Aedes aegypti [7]
  Minimum effective dosage required for biting protection: 0.047 ± 0.000 mg/cm^2

## CCCCCCCCCCCC(=O)O [lauric acid]
Stable flies [3]; 2-week longevity test (FIG. 5)
  repellency in longevity test: 94%
Bed bugs [4]; at 5%
  effectiveness duration: up to 24 hours
  repellency against bedbugs: 100%
Aedes aegypti [5]; 6.25%
  biting protection: 20 ± 0%
Aedes aegypti [5]; 12.50%
  biting protection: 20 ± 0%
Aedes aegypti [5]; 25% (0.42 mg/cm^2)
  biting protection: 73%
Aedes aegypti [5]; 25% (0.42 mg/cm^2), listed as Lauric acid
  biting protection: 74 ± 6%
Aedes aegypti [5]; 50%
  biting protection: 60 ± 11%
Stable flies [1]; stable flies
  toxic effect: no toxic effect
Horn flies [8]; 2 mg dose
  repellency against horn flies: 50%
Horn flies [8]; in vivo
  least repellency concentration, average amount needed: 7 mg
Stable flies [2]; 2 mg dose
  repellency against stable flies: No repellency
Stable flies [2]; in vivo
  LR50 (95% C.I.), least repellency concentration: 3.69 (3.23-6.53) mg/24 cm^2
  LR90 (95%, C.I.), least repellency concentration: 13.61 (9.11-32.59) mg/24 cm^2
  average amount needed to achieve 90% repellency: 13 mg
Aedes aegypti [7]
  Minimum effective dosage required for biting protection: 0.75 mg/cm^2
Aedes aegypti [7]; listed as Lauric acid
  Minimum effective dosage required for biting protection: 0.750 ± 0.000 mg/cm^2

## CCCCCCCCCCCC(=O)OC [methyl laurate]
ticks
  repellency against ticks: 100%
Stable flies [3]; 20 mg dosage, listed as C12 Me
  repellency against stable flies: 100%
Stable flies [3]; initial bioassays, dose not stated
  repellency of methyl esters: ~100%
Horn flies [9]; horn flies
  time to mortality after exposure: 15 to 20 min
Horn flies [9]; horn flies after exposure
  mortality: 100%
Stable flies [1]
  knock-down: no knock-down
Stable flies [1]; stable flies
  mean LD: 11 to 20 min
  time to mortality after exposure: 15 to 20 min
  toxic effect: least toxic compound
Stable flies [1]; stable flies after exposure
  mortality: 100%

## CCCCCCCC/C=C\CCCCCCCC(=O)OC [methyl oleate]
Stable flies [2]; 20 mg dosage
  repellency against stable flies: did not showed significant repellency
